Measurements as given in US8563503B2, “Antibiotic, its nucleotide sequence, methods of construction and uses thereof” (Protein Design Lab. Ltd., priority 2011, dated 2013).

How the values were obtained:
Baumanii = experiment: MIC by Agar Doubling Dilution Method, clinical isolates; format: cell-based; conditions: Baumanii clinical strains
Description: (§1) (3) Culture Solution • MH Broth Culture Solution: 25 g was added into […] distilled water, heat to dissolve, subpackaged, autoclaved at 116° C. for 20 minutes, and MH Solid Culture Medium, 36 g was added into 1000 ml distilled water, autoclaved at 116° C. for 20 minutes, used for drug sensitive test of Gram-positive and negative aerobic bacteria. • Blood culture solution for Enterococcus faecalis, which was prepared by adding defibration rabbit blood into the MH culture solution by 5-10% and cultured at 37° C. in 5% CO2 for 24 hours. 2. Experimental Methods (1) The Measurement of Minimum Inhibitory Concentration (MIC) • The Minimum Inhibitory Concentration (MIC) of PMC-SA1 was measured by Agar Doubling Dilution Method. The bacterium was inoculated on the surface of agar plate containing different concentration of drugs by multipoint inoculate instrument (Deneley A400). The bacterial content per point was 10^5 CFU/ml. After incubated at 37° C. for 18-24 hours, the result can be observed. The least concentration of drugs in plate culture solution without bacterium growing was Minimum Inhibitory Concentration (MIC) of the drug to the said bacteria. 3. Results

E. coli = experiment: as above; format: cell-based; conditions: E. coli clinical strains
Description: as §1

[1] = system: Staphylococcus aureus (MRSA); experiment: as above; format: cell-based; conditions: MRSA clinical strains
Description: as §1

[2] = system: Staphylococcus aureus (MSSA); experiment: as above; format: cell-based; conditions: MSSA clinical strains
Description: as §1

[3] = system: Staphylococcus epidermidis (MRSE); experiment: as above; format: cell-based; conditions: MRSE clinical strains
Description: as §1

[4] = system: Staphylococcus epidermidis (MSSE strain); experiment: as above; format: cell-based; conditions: MSSE clinical strains
Description: as §1

Enterococcus = experiment: as above; format: cell-based, Enterococcus faecalis; conditions: Enterococcus clinical strains
Description: as §1

Enterococcus ATCC 700802 [5] = experiment: MIC against the infecting strain (Table 2); format: cell-based, Enterococcus faecalis; conditions: ATCC700802
Description: as §1

E. coli 02-1-65 [6] = experiment: MIC against the infecting strain (Table 2); format: cell-based; conditions: E. coli 02-1-65
Description: as §1

[7] = system: Staphylococcus aureus ATCC 29213; experiment: MIC against the infecting strain (Table 2); format: cell-based; conditions: ATCC29213
Description: as §1

[8] = system: Staphylococcus aureus MRSA BAA-42; experiment: MIC against the infecting strain (Table 2); format: cell-based; conditions: Staphylococcus aureus MRSA BAA-42
Description: as §1

E. coli 02-1-65 [9] = experiment: Protection test in vivo (intravenous injection) of infected mice; parameters: species or system Kungming mice; conditions: mice, infected with 3.8 × 10^5 cfu/ml i.p., drug once intravenous
Description: (§2) The drugs used in this embodiment were same with that used in embodiment 4.
(§3) The above drugs were dissolved and diluted by sterilized water, and the injection concentrations of each drug were 10 mg/kg, 5 mg/kg and 2.5 mg/kg.
(§4) After given intraperitoneal injection of fatal dose of above-mentioned bacteria, the mice of each drug experimental group respectively were given once intravenous injection of the drug by 10 mg, 5 mg, 2.5 mg/kg. The results were observed per 24 hours for 7-14 days. The positive result is mice's death.

Enterococcus ATCC 700802 [10] = experiment: as above; parameters: species or system Kungming mice; conditions: mice, infected with 7.0 × 10^6 cfu/ml i.p., drug once intravenous
Description: as §2, §3, §4

[11] = system: Staphylococcus aureus ATCC 29213; experiment: as above; parameters: species or system Kungming mice; conditions: mice, infected with 4.6 × 10^5 cfu/ml i.p., drug once intravenous
Description: as §2, §3, §4

[12] = system: Staphylococcus aureus MRSA BAA-42; experiment: as above; parameters: species or system Kungming mice; conditions: mice, infected with 6.5 × 10^5 cfu/ml i.p., drug once intravenous
Description: as §2, §3, §4

[13] = system: methicillin-resistant Staphylococcus aureus (ATCC BAA-42); experiment: Transmission electron microscope observation of bactericidal effect; format: cell-based; conditions: oxacillin 500 μg/ml, […]
Description: Transmission Electron Microscope Observations of the Bactericidal Effect of the Novel Antibiotic PMC-SA1 on Methicillin-Resistant Staphylococcus aureus (ATCC BAA-42) (Dyed by 1% Phospho-Wolframic Acid, Magnified by 25,000 Fold)
Culture solution: 1% tryptone, 1% NaCl, 0.5% yeast extract, 0.5% glucose, 0.1% K2HPO4.
Con: control group, the bacterium was added to the above culture solution and proper amount of 0.3 M NaCl+50 mM boric acid buffer solution, 200 rpm, grew at 37° C. for 2 hours, and the bacterial appearance was still regular;
PMC: the bacterium was added to the above culture solution with 10 μg/ml PMC-SA1 for 0.5 hours.

[14] = system: methicillin-resistant Staphylococcus aureus ATCC BAA-42; experiment: Bacteria growth curve (A595 nm), comparison of the novel antibiotics; format: cell-based; conditions: drug 5 μg/ml, 37° C., A595 nm per hour
Description: The following experiment was set for comparing bacteriostasis effects of 6 kinds of the novel antibiotics. The experimental bacteriaum was United States Standard Strain methicillin-resistant Staphylococcus aureus ATCC BAA-42. 5 microliter of bacteria solution (10^6 CFU/ml level bacterium amount) was added into 10 ml culture solution containing 1% peptone, 1% NaCl, 0.5% yeast extract, 0.5% glucose and 0.1% K2HPO4, total of 8 groups were prepared. The first group as control was added 0.3 M NaCl+50 mM boric acid buffer fluid by the same volume as that of antibiosis polypeptide liquid added in any experimental groups, the second group was added penicillin G sodium by 5 μg/ml, PMC-SA1, PMC-SA2, PMC-SA3, PMC-SA4, PMC-SE and PMC-PA were added in the other experimental groups with preservative fluid being 0.3 M NaCl+50 mM boric acid buffer fluid by 5 ug/ml.
(§5) The solution of above groups was put into 100 ml conical flask, 200 rpm, grew at 37° C. 100 μl was sampled per hour, and added onto 96-pore ELISA plate and measured bacteria grown cloudiness by spectrophotometer (A595 nm) color comparison. The bacteria growth curve was drawn up to compare the bacteriostasis efficacy of antibiosis polypeptide.

[15] = system: Pseudomonas aeruginosa Standard Strain (ATCC 27853); experiment: Bacteria growth curve (A595 nm cloudiness), Pseudomonas aeruginosa; format: cell-based; conditions: drug 5 μg/ml, 37° C., A595 nm per hour
Description: The experimental bacterium was Pseudomonas aeruginosa Standard Strain (ATCC 27853) purchased from the Center for General Microorganism of the Administration (CGMCC). 5 microliter bacteria solution (10^6 CFU/ml level bacterium amount) was added into 10 ml MH culture solution. Seven groups are prepared. 0.3 M NaCl+50 mM boric acid buffer fluid which amount was identical to amount of antibiosis polypeptide liquid in the experimental group was added as control in the first group, 5 μg/ml wild-type colicin Ia was added in the second group, 5 μg/ml PMC-SA1 was added in the third group, and 5 μg/ml PMC-PA was added in the fourth group.
as §5, with “Liquid in the” for “The solution of”, “96-hole Elisa Plate to measure” for “96-pore ELISA plate and measured”

[16] = system: Multiple-drug resistance Pseudomonas aeruginosa (clinical separated strain 13280); experiment: In vivo protection of mice infected by multiple-drug resistance Pseudomonas aeruginosa; parameters: species or system Kungming mice; conditions: 5 mg/kg intravenous, fatal dose i.p.
Source text: (1) Drugs • PMC-PA, piperacillin, amikacin, ceftazidime, levofloxacin.
Multiple-drug resistance Pseudomonas aeruginosa (clinical separated strain 13280, isolated by laboratory bacteria room of West China Hospital)
Kungming mice (n=60), half male and half female, weighing 15-20 g were given intraperitoneal injection of multiple-drug resistance Pseudomonas aeruginosa, therein PMC-PA, piperacillin, amikacin, ceftazidime and levofloxacin experimental group were set respectively as 10 mice per group, while the control group was set as 10 mice per group. After given intraperitoneal injection of fatal dose of the bacterium, the mice in drug experimental groups respectively were given an intravenous injection of one kind of above drugs, the results were observed per 24 hours for continuous 10 days. The positive result was mouse's death.

CC1(C)S[C@@H]2[C@H](NC(=O)[C@H](N)c3ccccc3)C(=O)N2[C@H]1C(=O)[O-].[Na+] [Ampicillin, Ampicillin Sodium]
MIC50 (Baumanii): >128 µg/mL
MIC90 (Baumanii): >128 µg/mL
MIC50 (E. coli): >128 µg/mL
MIC90 (E. coli): >128 µg/mL
MIC50 [1]: 16 µg/mL
MIC90 [1]: 32 µg/mL
Scope of MIC [1]: 0.06 to 64 µg/mL
MIC50 [2]: 0.25 µg/mL
MIC90 [2]: 1 µg/mL
Scope of MIC [2]: <0.015-0.025 ^ mg/L
MIC50 [3]: 16 µg/mL
MIC90 [3]: 64 µg/mL
Scope of MIC [3]: 0.06 to 64 µg/mL
MIC50 [4]: 0.03 µg/mL
MIC90 [4]: 0.25 µg/mL
MIC50 (Enterococcus): 0.5 µg/mL
MIC90 (Enterococcus): 16 µg/mL
Scope of MIC (Enterococcus): 0.25 to 16 µg/mL
MIC (Enterococcus ATCC 700802 [5]): 2.5 µg/mL
MIC (E. coli 02-1-65 [6]): >128 µg/mL
MIC [7]: 1.5 µg/mL
MIC [8]: 16 µg/mL
ED50 (E. coli 02-1-65 [9]): >32 mg/kg
ED50 (Enterococcus ATCC 700802 [10]): 3.00 mg/kg
ED50 [11]: 14.05 mg/kg
ED50 [12]: 25.41 mg/kg

Cc1onc(-c2ccccc2)c1C(=O)N[C@@H]1C(=O)N2[C@@H]1SC(C)(C)[C@@H]2C(=O)[O-].[Na+] [Oxacillin, Oxacillin Sodium]
bactericidal effect, bacterial appearance under transmission electron microscope [13]: the colour as well as appearance of the bacterium had changed, but the thallus was still integrated
bactericidal effect, bacterial appearance under transmission electron microscope ([13]; listed as oxacillin): the appearance of bacterium had changed, but thallus were still integrative
MIC50 [2]: 0.125 µg/mL
MIC90 [2]: 0.125 µg/mL
Scope of MIC [2]: <0.015-0.25 ^ mg/L
MIC50 [3]: 64 µg/mL
MIC50 [4]: 0.03 µg/mL
MIC90 [4]: 0.125 µg/mL
Scope of MIC [4]: <0.125-0.25 ^ mg/L
MIC50 (Enterococcus): 16 µg/mL
bacteriostasis effect on growth of methicillin-resistant Staphylococcus aureus (bacteria growth curve) [14]: can hardly be restrained

B1: wild-type colicin Ia: wild-type bacterial toxin colicin Ia secreted by E. coli (protein, UniProt P06716 1-626, looked up)
Colicin-Ia: MSDPVRITNPGAESLGYDSDGHEIMAVDIYVNPPRVDVFHGTPPAWSSFGNKTIWGGNEWVDDSPTRSDIEKRDKEITAYKNTLSAQQKENENKRTEAGKRLSAAIAAREKDENTLKTLRAGNADAADITRQEFRLLQAELREYGFRTEIAGYDALRLHTESRMLFADADSLRISPREARSLIEQAEKRQKDAQNADKKAADMLAEYERRKGILDTRLSELEKNGGAALAVLDAQQARLLGQQTRNDRAISEARNKLSSVTESLNTARNALTRAEQQLTQQKNTPDGKTIVSPEKFPGRSSTNHSIVVSGDPRFAGTIKITTSAVIDNRANLNYLLSHSGLDYKRNILNDRNPVVTEDVEGDKKIYNAEVAEWDKLRQRLLDARNKITSAESAVNSARNNLSARTNEQKHANDALNALLKEKENIRNQLSGINQKIAEEKRKQDELKATKDAINFTTEFLKSVSEKYGAKAEQLAREMAGQAKGKKIRNVEEALKTYEKYRADINKKINAKDRAAIAAALESVKLSDISSNLNRFSRGLGYAGKFTSLADWITEFGKAVRTENWRPLFVKTETIIAGNAATALVALVFSILTGSALGIIGYGLLMAVTGALIDESLVEKANKFWGI
growth of Pseudomonas aeruginosa (bacteria growth curve) [15]: can not be effectively restrained

B2: PMC-PA: Staphylococcus aureus pheromone AgrD I connected to N-terminus of allosteric colicin Ia′; SEQ ID NO. 23; plasmid pBHC-PA (protein)
chain: YSTCDFIMSDPVRITNPAAESLGYDSDGREIMGVDIYLNPPRVDVFKGTPPAWSSFGNKTIWGGNEWVDDSPTRSDIEKRDKEITAYKNTLSAQQKENENKRTEAGKRLSAAIAAREKDENTLKTLRAGNADAADITRQEFRLLQAELREYGFRTEIAGYDALRLHTESRMLFADADSLRISPREARSLIEQAEKRQKDAQNADKKAADMLAEYERRKGILDTRLSELEKNGGAALAVLDAQQARLLGQQTRNDRAISEARNKLSSVTESLNTARNALTRAEQQLTQQKNTPDGKTIVSPEKFPGRSSTNHSIVVSGDPRFAGTIKITTSAVIDNRANLNYLLSHSGLDYKRNILNDRNPVVTEDVEGDKKIYNAEVAEWDKLRQRLLDARNKITSAESAVNSARNNLSARTNEQKHANDALNALLKEKENIRNQLSGINQKIAEEKRKQDELKATKDAINFTTEFLKSVSEKYGAKAEQLAREMAGQAKGKKIRNVEEALKTYEKYRADINKKINAKDRAAIAAALESVKLSDISSNLNRFSRGLGYAGKFTSLADWITEFGKAVRTENWRPLFVKTETIIAGNAATALVALVFSILTGSALGIIGYGLLMAVTGALIDESLVEKANKFWGI
modifications: The peptide of PMC-SA
notes: Staphylococcus aureus pheromone AgrD I connected to N-terminus of allosteric colicin Ia′; 23; plasmid pBHC-PA
bacteriostasis effect on growth of methicillin-resistant Staphylococcus aureus (bacteria growth curve) [14]: the worst
growth of Pseudomonas aeruginosa (bacteria growth curve) [15]: completely restrained
growth of Pseudomonas aeruginosa (bacteria growth curve) ([15]; listed as SEQ ID NO. 23): has antibacterial effect on Pseudomonas aeruginosa
survival rate of mice in 10 days [16]: 100%
